How the values were obtained:
sheep spleen cells = assay: Assessment of potential cytotoxicity: percentage cell viability versus a PBS control; type: cell-based; conditions: 36.5° C.
Procedure: The potential cytotoxic properties of compounds 12, 13 and 14 were evaluated by measuring percentage cell viability of sheep spleen cells versus a PBS control after 24 h and 48 h exposure to 0.01, 0.1 and 1 mg/mL solutions of each compound in PBS at 36.5° C.

[1] = Water relaxivity measurements (T1, inversion recovery NMR); type: physicochemical; conditions: 500 MHz (11.75 T), 30° C., aqueous solution
Procedure: Water relaxivity measurements provide an indication of whether a material will increase contrast in MRI imaging techniques. Water relaxivity measurements were performed in aqueous solutions. T1 measurements were made on a 500 MHz (11.75 T) Bruker NMR using a standard inversion recovery sequence (180-t-90) at 30° C. The relaxivity of water in D2O in the presence of (meglumine)2[Gd(III)(DPTA)(OH2)]

[2] = comparator salt, stated without test; cited from earlier work
[3] = Stability under forcing degradation conditions with HPLC monitoring; type: physicochemical
Source text: Assessment of Potential Cytotoxicity

Row | relaxivity of water in D2O [1] | Molecule | Cell viability (sheep spleen cells; 0.01 mg/mL in PBS, 24 h) | Cell viability (sheep spleen cells; 0.01 mg/mL in PBS, 48 h) | Cell viability (sheep spleen cells; 0.1 mg/mL in PBS, 24 h) | Cell viability (sheep spleen cells; 0.1 mg/mL in PBS, 48 h) | Cell viability (sheep spleen cells; 1 mg/mL in PBS, 24 h) | Cell viability (sheep spleen cells; 1 mg/mL in PBS, 48 h) | also measured
1 |  | 2-Aminoacetic acid(N,N):{6,9-diaza-3-oxa-7-oxononanyl(9,9)}2x,4x,8x^G1,G2,G3:(6-aza-3-oxa-7-oxooctanyl)16-cascadane [compound 14] | 104% | 99% | 104% | 97% | 97% | 90% | 
2 | 3.84 mM⁻¹ s⁻¹ | CNC[C@H](O)[C@@H](O)[C@H](O)[C@H](O)CO.CNC[C@H](O)[C@@H](O)[C@H](O)[C@H](O)CO.O=C([O-])CN(CCN(CC(=O)[O-])CC(=O)O)CCN(CC(=O)[O-])CC(=O)O.[Gd+3] [(meglumine)2[Gd(III)(DPTA)(OH2)], reference compound] |  |  |  |  |  |  | 
3 |  | O=C([O-])CN(CCN(CC(=O)[O-])CC(=O)[O-])CCN(CC(=O)[O-])CC(=O)[O-].[Gd+3].[Na+].[Na+] [Gd-DPTA disodium salt] |  |  |  |  |  |  | water solubility [2]: sparingly water soluble
4 |  | 2-Aminoacetic acid(N,N):{6,9-diaza-3-oxa-7-oxononanyl(9,9)}2x,4x,8x^G1,G2,G36:(5-amino-3-oxapentanyl)16-cascadane [compound 12] | 94% | 84% | 92% | 85% | 99% | 87% | 
5 |  | 2-Aminoacetic acid(N,N):{6,9-diaza-3-oxa-7-oxononanyl(9,9)}2x,4x,8x^G1,G2,G3:(6-aza-3,11-dioxa-7,10-dioxoundecanyl)16-cascadane [compound 13] | 107% | 97% | 104% | 98% | 106% | 100% | degradation ([3]; 24 h in 1% H2O2 at 20° C.): 63%; degradation ([3]; 24 h in 1 M HCl at 20° C.): 12%; degradation ([3]; 24 h in 1 M NaOH at 20° C.): 30%; degradation ([3]; 24 h neat at 40° C.): No observable degradation; degradation ([3]; 24 h neat at 80° C.): 41%
6 | 1.20 mM⁻¹ s⁻¹ | Gadolinium complex of 2-aminoacetic acid(N,N):{6-aza-3-oxahexanyl(6,6)}2x^G1: (carboxymethyl)4-cascadane [34-Gd] |  |  |  |  |  |  | 
